Laboratory results as given in US8853230B2, “Inhibitors of JAK” (Portola Pharmaceuticals, Inc., priority 2009, dated 2014).

How the values were obtained:
JAK2 = biological target: T1, JAK2 (Homo sapiens, UniProt O60674); experiment: Z'-LYTE kinase assay, JAK2 tyrosine phosphorylation activity; type: biochemical
T1 construct: 5 μl of catalytic domain recombinant Kinase enzyme+Tyr peptide substrate (Invitrogen, Calif.); purchased Invitrogen
How it was run: (§1)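 Inhibition is expressed as substrate phosphorylation relative to inhibitor-free wells, fitted with a 4-parameter logistic model for IC50. Reactions contain catalytic-domain kinase, Tyr6 peptide and ATP, run 1 h at room temperature. Development protease is added for 1 h before fluorescence readout.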

TYK2 = biological target: T2, TYK2 (Homo sapiens, UniProt P29597); experiment: Z'-LYTE kinase assay, TYK2 tyrosine phosphorylation activity; type: biochemical
T2 construct: 5 μl of catalytic domain recombinant Kinase enzyme+Tyr peptide substrate (Invitrogen, Calif.); purchased Invitrogen
T2 sequence (P29597 897-1176 limits assumed): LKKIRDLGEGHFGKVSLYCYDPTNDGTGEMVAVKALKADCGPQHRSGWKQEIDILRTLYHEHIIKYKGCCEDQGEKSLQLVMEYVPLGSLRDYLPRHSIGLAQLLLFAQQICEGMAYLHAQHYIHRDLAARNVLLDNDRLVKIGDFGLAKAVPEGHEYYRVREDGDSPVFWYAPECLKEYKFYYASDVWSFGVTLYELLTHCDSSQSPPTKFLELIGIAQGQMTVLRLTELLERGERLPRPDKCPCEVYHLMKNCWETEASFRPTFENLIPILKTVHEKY
How it was run: as §1

JAK1 = biological target: T3, JAK1 (Homo sapiens, UniProt P23458); experiment: Z'-LYTE kinase assay, JAK1 tyrosine phosphorylation activity; type: biochemical; conditions: read-out: JAK 1 IC50
T3 construct: 5 μl of catalytic domain recombinant Kinase enzyme+Tyr peptide substrate (Invitrogen, Calif.); purchased Invitrogen
How it was run: as §1

[1] = system: IL4-induced phospho STAT6 formation in Ramos B lymphocytes; experiment: Inhibition of IL4-induced phospho STAT6 formation in Ramos B lymphocytes (flow cytometry); type: cell-based, human; conditions: Homo sapiens; for inhibition at 0.2 µM: 200 nM compound, read-out: % Inhibition of IL-4 Induced STAT6 Phosphorylation 200 nM; for inhibition at 1 µM: 1 μM compound, read-out: % Inhibition of IL-4 Induced STAT6 Phosphorylation 1 μM
How it was run: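 Human Ramos B cells (0.5 million) pre-incubated 1 h at 37°C/5% CO2 with compound or DMSO, then stimulated with 1 ng/ml IL4 for 10 min. Cells were PFA-fixed, methanol-permeabilized and stained with Alexa-anti-phosphoSTAT6 (Y641); flow cytometry mean fluorescence gave percent inhibition of the IL4 signal.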

Syk = Syk (Homo sapiens, UniProt P43405); experiment: Syk IC50 (Table 1; method not given); type: biochemical
JAK3 = biological target: T4, JAK3 (Homo sapiens, UniProt P52333); experiment: Z'-LYTE kinase assay, JAK3 tyrosine phosphorylation activity; type: biochemical
T4 construct: 5 μl of catalytic domain recombinant Kinase enzyme+Tyr peptide substrate (Invitrogen, Calif.); purchased Invitrogen
How it was run: as §1

T4 sequence (P52333 822-1111 limits assumed): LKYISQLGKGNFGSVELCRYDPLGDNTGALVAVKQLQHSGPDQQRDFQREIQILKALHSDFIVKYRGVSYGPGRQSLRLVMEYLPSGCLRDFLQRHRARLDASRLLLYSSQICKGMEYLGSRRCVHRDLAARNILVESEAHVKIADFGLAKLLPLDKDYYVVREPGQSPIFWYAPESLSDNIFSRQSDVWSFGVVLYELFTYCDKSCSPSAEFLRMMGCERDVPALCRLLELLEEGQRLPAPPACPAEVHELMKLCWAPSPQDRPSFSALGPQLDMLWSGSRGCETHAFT
T1 sequence (O60674 849-1124 limits assumed): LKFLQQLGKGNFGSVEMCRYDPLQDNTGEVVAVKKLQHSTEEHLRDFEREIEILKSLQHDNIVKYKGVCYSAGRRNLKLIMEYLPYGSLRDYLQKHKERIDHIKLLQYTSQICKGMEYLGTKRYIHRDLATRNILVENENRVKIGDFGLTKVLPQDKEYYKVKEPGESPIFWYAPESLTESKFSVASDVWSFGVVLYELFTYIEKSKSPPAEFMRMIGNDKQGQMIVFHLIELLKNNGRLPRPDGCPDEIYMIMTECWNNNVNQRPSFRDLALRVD
T3 sequence (P23458 875-1153 limits assumed): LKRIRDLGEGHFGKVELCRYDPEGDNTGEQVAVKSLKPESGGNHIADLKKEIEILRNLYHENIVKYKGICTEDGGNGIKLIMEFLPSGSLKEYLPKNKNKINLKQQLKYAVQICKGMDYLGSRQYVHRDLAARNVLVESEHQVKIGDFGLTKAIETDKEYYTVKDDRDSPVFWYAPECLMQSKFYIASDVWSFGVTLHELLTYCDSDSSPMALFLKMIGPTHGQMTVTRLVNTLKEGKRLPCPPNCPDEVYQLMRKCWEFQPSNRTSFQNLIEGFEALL

Row | IC50 (JAK2) [µM] | IC50 (TYK2) [µM] | IC50 (JAK1) [µM] | IC50 (Syk) [µM] | IC50 (JAK3) [µM] | SMILES | inhibition at 0.2 µM [1] [%] | inhibition at 1 µM [1] [%]
1 | 0.1 to 1 | 0.01 to 0.1 | 0.1 to 1 | > 1 | 0.01 to 0.1 | COC(=O)Nc1cc(Nc2ncc(C(N)=O)c(NCc3ccccc3)n2)ccc1Cl [Example 32, methyl 5-(4-(benzylamino)-5-carbamoylpyrimidin-2-ylamino)-2-chlorophenylcarbamate] | 27 | 65
2 | 0.1 to 1 | 0.01 to 0.1 | 0.1 to 1 | 0.1 to 1 | 0.01 to 0.1 | CCOC(=O)Nc1cccc(Nc2ncc(C(N)=O)c(NC3CCCC3)n2)c1 [Example 24, ethyl 3-(5-carbamoyl-4-(cyclopentylamino)pyrimidin-2-ylamino)phenylcarbamate] | 24.7 | 71.3
3 | 0.1 to 1 | 0.01 to 0.1 | > 1 | > 1 | 0.01 to 0.1 | CC(C)OC(=O)Nc1cccc(Nc2ncc(C(N)=O)c(NCc3ccccc3)n2)c1 [Example 41, isopropyl 3-(4-(benzylamino)-5-carbamoylpyrimidin-2-ylamino)phenylcarbamate] | 50.7 | 95.3
4 | 0.01 to 0.1 | 0.001 to 0.01 | 0.01 to 0.1 | 0.1 to 1 | 0.001 to 0.01 | NC(=O)Nc1cccc(Nc2ncc(C(N)=O)c(NCc3ccccc3)n2)c1 [Example 38, 4-(benzylamino)-2-(3-ureidophenylamino)pyrimidine-5-carboxamide] | 41.3 | 82.7

More lines, now with the values behind:

Row | SMILES | IC50 (JAK2) [µM] | IC50 (TYK2) [µM] | IC50 (JAK1) [µM] | IC50 (Syk) [µM] | IC50 (JAK3) [µM] | inhibition at 0.2 µM [1] [%] | inhibition at 1 µM [1] [%]
5 | CCOC(=O)Nc1cccc(Nc2ncc(C(N)=O)c(NCc3ccccc3)n2)c1 [Example 31, ethyl 3-(4-(benzylamino)-5-carbamoylpyrimidin-2-ylamino)phenylcarbamate] | 0.1 to 1 | 0.01 to 0.1 | 0.1 to 1 | > 1 | 0.001 to 0.01 | 13.7 | 37
6 | COC(=O)Nc1cccc(Nc2ncc(C(N)=O)c(NCc3ccccc3)n2)c1 [Example 30, methyl 3-(4-(benzylamino)-5-carbamoylpyrimidin-2-ylamino)phenylcarbamate] | 0.01 to 0.1 | 0.001 to 0.01 | 0.1 to 1 | 0.1 to 1 | 0.001 to 0.01 | 8.3 | 63
7 | CCC(=O)Nc1cccc(Nc2ncc(C(N)=O)c(NCc3ccccc3)n2)c1 [Example 28, 4-(benzylamino)-2-(3-propionamidophenylamino)pyrimidine-5-carboxamide] | 0.01 to 0.1 | 0.001 to 0.01 | 0.01 to 0.1 | > 1 | 0.001 to 0.01 | 32 | 77.7
8 | COC(=O)Nc1cc(Nc2ncc(C(N)=O)c(N[C@H](C)c3ccccc3)n2)ccc1Cl [Example 129, (R)-methyl 5-(5-carbamoyl-4-(1-phenylethylamino)pyrimidin-2-ylamino)-2-chlorophenylcarbamate] | 0.1 to 1 | 0.1 to 1 | > 1 | > 1 | 0.01 to 0.1 | 4 | 16.7
9 | CC(=O)Nc1cccc(Nc2ncc(C(N)=O)c(NCC3CCCN(C(N)=O)C3)n2)c1 (stereo not shown) [Example 117, 2-(3-acetamidophenylamino)-4-((1-carbamoylpiperidin-3-yl)methylamino)pyrimidine-5-carboxamide] | 0.001 to 0.01 | 0.001 to 0.01 | 0.01 to 0.1 | 0.1 to 1 | < 0.001 | 4.5 | 29.5
10 | CC(=O)Nc1cccc(Nc2ncc(C(N)=O)c(NC3CCOCC3)n2)c1 [Example 75, 2-(3-acetamidophenylamino)-4-(tetrahydro-2H-pyran-4-ylamino)pyrimidine-5-carboxamide] | 0.01 to 0.1 | 0.01 to 0.1 | 0.01 to 0.1 | > 1 | 0.001 to 0.01 | 53.3 | 90.3
